Assay results reported in US12226410B2, “Methods for enhancing cellular clearance of pathological molecules via activation of the cellular protein ykt6” (NORTHWESTERN UNIVERSITY, priority 2019, dated 2025).

Assays:
ykt6 = assay: Ykt6 in red blood cells of FTI-treated mice; type: in vivo; details: WT mice
From the text: FIG. 20. Ykt6 in red blood cells of human and mice. A) Fractionation of RBCs/western blot of ykt6. Markers indicate efficient separation of cytosol (GAPDH) and membrane (Ank, Ankyrin-1). […] B) Ykt6 from RBCs of nTg of symptomatic 12 mo old A53T mice (ref 12) (n=3-5).
(See FIG. 20A). […] (See FIG. 20C).

GCase = assay: Analysis of post-ER GCase (endo H resistance) in FTI-treated cultures; type: cell-based, human; details: A53T iPSn and SHSY5Y cells
Experimental: FIGS. 5A, 5B, 5C, 5D, 5E, 5F, and 5G. Reducing farnesyl-ykt6 enhances SNARE assembly and improves the lysosomal targeting of GCase. 5A) Ykt6 membrane shift analysis of SH-SY5Y cells expressing GFP-ykt6 wt or CS (n=3). 5B) Co-IP of GFP-ykt6 and bet1 in A53T iPSn (n=3). 5C) Ykt6 membrane shift analysis in FTI-treated SH-SY5Y wt a-syn cells or A53T iPSn (5 nM farnesyltransferase inhibitors (FTI) LNK-754 (FTI-1) or LNK-3248 (FTI-2) for 5 days) (n=4). Sec22b was measured to assess specificity. 5D) SEC/western blot of FTI-1 treated SH-SY5Y cells. Quantification is shown below. 5E) Co-IP of GFP-ykt6 wt or mutant ykt6-SS, (cannot be palmitoylated or farnesylated) in FTI-treated SHSY5Y cells (5 nM LNK-754, 5d) (n=2). […]
(§1) FIGS. 14A, 14B, 14C, 14D, 14E, 14F, and 14G. […] 14A) Farnesylation of ykt6 was measured in SH-SY5Y cells expressing GFP-ykt6. […] Biotin was detected with streptavidin-conjugated IRDye800, and normalized to total levels of GFP-ykt6. […] Ykt6 complex levels eluting at ca. 120A were quantified on the right (n=2). […] 14E) Raw quantification data of LAMP2A immunofluorescence intensity of individual cells from H4 cells treated with FTI, +/−ykt6 KD. […] For all quantifications, values are the mean+/−SEM, *p<0.05.
Analysis of post-ER GCase. […] Endo H resistant bands migrating at 62-64 kDa were measured as post-ER forms of GCase, and normalized to GAPDH levels. […]

H4 a-syn cells = assay: Immunofluorescence of GCase and LAMP2A in FTI-treated H4 a-syn cells; type: cell-based, human; details: 5 nM FTI
Experimental: FIGS. 5A, 5B, 5C, 5D, 5E, 5F, and 5G. Reducing farnesyl-ykt6 enhances SNARE assembly and improves the lysosomal targeting of GCase. 5A) Ykt6 membrane shift analysis of SH-SY5Y cells expressing GFP-ykt6 wt or CS (n=3). 5B) Co-IP of GFP-ykt6 and bet1 in A53T iPSn (n=3). 5C) Ykt6 membrane shift analysis in FTI-treated SH-SY5Y wt a-syn cells or A53T iPSn (5 nM farnesyltransferase inhibitors (FTI) LNK-754 (FTI-1) or LNK-3248 (FTI-2) for 5 days) (n=4). Sec22b was measured to assess specificity. 5D) SEC/western blot of FTI-1 treated SH-SY5Y cells. Quantification is shown below. […]
as §1
For GCase/LAMP2 colocalization, cultures were fixed in 4% PFA in PBS for 20 minutes, then permeabilized in 0.2% saponin in 0.2% glycine buffer as described previously (Mazzulli et al., 2016b). […] Cells were mounted in DAPI-Fluoromount G (Southern Biotech) and analyzed by confocal microscopy as above. […]

ykt6 SNARE complexes = assay: SEC/western blot of ykt6 SNARE complexes in FTI-treated cultures; type: cell-based, human; details: SH-SY5Y cells, confirmed in A53T iPSn
Experimental: FIGS. 5A, 5B, 5C, 5D, 5E, 5F, and 5G. Reducing farnesyl-ykt6 enhances SNARE assembly and improves the lysosomal targeting of GCase. 5A) Ykt6 membrane shift analysis of SH-SY5Y cells expressing GFP-ykt6 wt or CS (n=3). 5B) Co-IP of GFP-ykt6 and bet1 in A53T iPSn (n=3). 5C) Ykt6 membrane shift analysis in FTI-treated SH-SY5Y wt a-syn cells or A53T iPSn (5 nM farnesyltransferase inhibitors (FTI) LNK-754 (FTI-1) or LNK-3248 (FTI-2) for 5 days) (n=4). Sec22b was measured to assess specificity. 5D) SEC/western blot of FTI-1 treated SH-SY5Y cells. Quantification is shown below. 5E) Co-IP of GFP-ykt6 wt or mutant ykt6-SS, (cannot be palmitoylated or farnesylated) in FTI-treated SHSY5Y cells (5 nM LNK-754, 5d) (n=2). 5F) Immunofluorescence of GCase and LAMP2A in FTI-treated H4 a-syn cells transfected with scrambled (scrb) or ykt6 shRNA (n=3). Scale bar=10 um. 5G) GCase maturation analysis in FTI-treated A53T iPSn by endo H (n=3). Values are the mean+/−SEM, *p<0.05.
Size exclusion chromatography analysis. Cultures or PD brain (cingulate cortex, previously described (Mazzulli et al., 2011)) were homogenized as described above in 1% Triton buffer, centrifuged at 100,000×g for 30 min at 4° C. […]
Treatment of cultures with farnesyltransferase inhibitors. […] Cultures were harvested and analyzed as described in the above sections.

Compound: C#Cc1cccc(-c2cc(=O)n(C)c3ccc([C@](O)(c4ccc(Cl)cc4)c4cncn4C)cc23)c1 [LNK-754]
- membrane Ykt6 in red blood cells (ykt6): increases membrane Ykt6
- membrane Ykt6 in red blood cells (ykt6; listed as FTI): activation of ykt6 in red blood cells
- mature, endo H-resistant GCase (GCase): significantly elevated
- levels of LAMP2A and GCase by immunostaining (H4 a-syn cells): elevated the levels of LAMP2A and GCase
- levels of ykt6 SNARE complexes by SEC (ykt6 SNARE complexes): elevated the levels of ykt6 SNARE complexes
